Several values for one entry are separate records, joined by “and”; a condition that tells them apart may be missing. Identical values can stand only once.

Data set [1] deals with herpes-simplex virus 2. The settings on record: ref xxi; cited from earlier work.
Data set [2] concerns bacteriophage φ6. The note with it: ref xxi; cited from earlier work.
Data set [3] deals with simian immunodeficiency virus (SIV). The note with it: ref xxii; cited from earlier work.
Data set [4] can be described thus: Critical micelle concentration by tensiometer measurements in water. The note with it: for CMC: in water, triplicate single values. It is filed as physicochemical.

Consider 1-O-lauryl-glycerol [GML], for which, in data set [1], the “activity against herpes-simplex virus 2” value is reported as “low micromolar activity”. Moreover, in data set [2], the “activity against bacteriophage φ6” value is on record as “low micromolar activity”. Besides, the “prevention of SIV in rhesus macaque model” value in data set [3] is on record as “prevent simian immunodeficiency virus (SIV)”.

In the case of `CCCCCCCCCCCCCCCC(=O)OC[C@H]1O[C@H](O[C@@H]2O[C@H](CO)[C@@H](O)[C@H](O)[C@H]2O)[C@@H](O)[C@@H](O)[C@@H]1O` [Compound 6, β-D-Glucopyranosyl-(1→1)-6-O-palmitate-α-D-mannopyranoside], in data set [4], the CMC is 10.5 µM and 12 µM.

As for `CCCCCCCCCCCCCCCC(=O)O[C@@H]1[C@H](O)[C@@H](O[C@@H]2O[C@H](CO)[C@H](O)[C@H](O)[C@H]2O)O[C@H](CO)[C@H]1O` [Compound 4, β-D-Galactopyranosyl-(1→1)-3-O-palmitate-α-D-mannopyranoside], in data set [4], the CMC turned out to be 12.5 µM.

Regarding `CCCCCCCCCCCCCCCC(=O)OC[C@H]1O[C@H](OC)[C@@H](O)[C@@H](O)[C@@H]1O` [Compound 7, Methyl-6-O-palmitate-α-D-mannopyranoside], in data set [4], the CMC was 13.5 µM and 13.7 µM.

As for `CCCCCCCCCCCCCCCC(=O)OC[C@H]1O[C@H](OC)[C@@H](O)[C@@H](O)[C@@H]1OC(=O)CCCCCCCCCCCCCCC` [Compound 8, Methyl-4,6-di-O-palmitate-α-D-mannopyranoside], in data set [4] (interpretation of surface tension data), the “concentration above which precipitates rather than micelles form in water” value is > 500 nM.

In data set [4], `CCCCCCCCCCCCCCCC(=O)OC[C@H]1O[C@H](O[C@@H]2O[C@H](CO)[C@H](O)[C@H](O)[C@H]2O)[C@@H](O)[C@@H](O)[C@@H]1O` [Compound 3, β-D-Galactopyranosyl-(1→1)-6-O-palmitate-α-D-mannopyranoside] had a CMC of 10.5 µM.

The record behind these values is publication PMC3380439 (Bioorganic & medicinal chemistry, 2011).
